Results reported in article PMC8596838, “Xylose‐Configured Cyclophellitols as Selective Inhibitors for Glucocerebrosidase” (Chembiochem, 2021).

Target: T1, GBA2 E527G mutant and E527G/D667G double mutant (Homo sapiens, UniProt Q9HCG7, E527G)
T1 construct: expressed in transfected cells; host or cells: HEK293T
T1 sequence (Q9HCG7 1-927 E527G): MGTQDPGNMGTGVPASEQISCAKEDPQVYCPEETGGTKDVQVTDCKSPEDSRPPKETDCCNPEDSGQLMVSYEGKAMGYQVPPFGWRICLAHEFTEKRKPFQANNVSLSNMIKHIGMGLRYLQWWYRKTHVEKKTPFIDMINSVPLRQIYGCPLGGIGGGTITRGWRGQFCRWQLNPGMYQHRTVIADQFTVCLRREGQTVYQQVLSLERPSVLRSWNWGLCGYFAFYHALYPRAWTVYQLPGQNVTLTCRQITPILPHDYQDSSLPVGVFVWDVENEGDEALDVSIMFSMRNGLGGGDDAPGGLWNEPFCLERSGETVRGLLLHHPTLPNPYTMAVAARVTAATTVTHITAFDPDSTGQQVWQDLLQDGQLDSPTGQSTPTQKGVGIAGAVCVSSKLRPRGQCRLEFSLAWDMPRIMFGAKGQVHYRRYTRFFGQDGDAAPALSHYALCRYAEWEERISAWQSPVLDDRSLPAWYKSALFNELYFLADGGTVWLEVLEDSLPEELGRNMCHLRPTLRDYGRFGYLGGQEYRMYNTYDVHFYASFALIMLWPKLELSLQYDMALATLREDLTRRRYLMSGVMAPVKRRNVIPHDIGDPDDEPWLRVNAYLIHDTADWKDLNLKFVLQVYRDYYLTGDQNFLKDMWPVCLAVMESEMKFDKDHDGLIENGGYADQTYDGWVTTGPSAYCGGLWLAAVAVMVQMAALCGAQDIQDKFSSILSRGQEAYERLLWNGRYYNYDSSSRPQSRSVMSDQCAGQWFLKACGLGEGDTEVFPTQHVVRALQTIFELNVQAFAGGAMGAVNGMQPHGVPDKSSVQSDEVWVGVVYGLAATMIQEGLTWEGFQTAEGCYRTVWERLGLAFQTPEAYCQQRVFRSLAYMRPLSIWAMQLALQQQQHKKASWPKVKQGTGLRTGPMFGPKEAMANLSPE
Assay: ABP labeling of mutant GBA2 expressed in HEK293T cells
Format: biochemical
Conditions: HEK293T cells expressing mutant GBA2
Method: Figure 4 (A) ABP labeling of β‐D‐glucosidases. A lysate of HEK293T cells expressing human GBA, GBA2 and GBA3 was incubated with indicated ABPs (6, 9 or 10) for 30 min at pH 6.0. Fluorescently labeled proteins were visualized after SDS‐PAGE. (B) Labeling with ABP 6 of wild type or mutant GBA2 (E527G nucleophile mutation and D667G acid/base mutation) expressed in HEK293T cells.
Cell culture: HEK293T (CRL‐3216) were purchased from ATCC (Manassas, VA, USA). HEK293T cells were cultured in DMEM medium (Sigma‐Aldrich), supplied with 10 % (v/v) FCS, 0.1 % (w/v) penicillin/streptomycin and 1 % (v/v) Glutamax, under 7 % CO2. […] First the GBA Knockout cells were generated using the annealed oligonucleotides (top strand) 5’‐CACCGCGCTATGAGAGTACACGCAG‐3’ and (bottom strand 5’‐AAACCTGCGTGTACTCTCATAGCGC‐3’ and after ligation in the BbsI site of the px330 and subsequent transfection into the HEK293T cells. Single cells were created and the different clones were analyzed for lack of expression of GBA with enzyme activity assays and ABPs and subsequent genomic sequence analysis. The true GBA knockout cells were next used to create the GBA/GBA2 double knockout cells (using the px330 and the following annealed and ligated oligonucleotides (top strand 5‐CACCGGACGGACTGCTGCAATCCGG‐3’ and bottom strand 5’‐AAACCCGGATTGCAGCAGTCCGTCC‐3’. […]

Structure (SMILES): CN1/C(=C/C=C/C=C/C2=[N+](CCCCCC(=O)NCc3cn(CCCCCCCCN4[C@H]5[C@H](O)[C@@H](O)[C@H](O)C[C@H]54)nn3)c3ccccc3C2(C)C)C(C)(C)c2ccccc21 (stereo partly shown) [ABP 6]
- labeling of GBA2 E527G mutant and E527G/D667G double mutant: no longer labeled
